Measured values as given in patent US20230407377A1, “CRISPR/CAS SCREENING SYSTEM MATERIALS AND METHODS” (University of Copenhagen, priority 2020, published 2023).

Columns and labels:
[1] = system: SW620 (MLH1+/+) cells; experiment: MUT:WT* ratio of MLH1 loss-of-function variants without or with 6-thioguanine; type: cell-based, human; details: E448STOP, Q537STOP; 2 μM 6-thioguanine until Day 11
Excerpt: Data represent ratios normalized to the value at Day 2 and are means of 3 independent experiments +/−SD. Two-tailed paired t-test were used to calculate the significance in all cases. NS=not significant. ** indicates p<0.01. *** indicates p<0.001. The figure and results are further described in the Examples.
Cultures of human colon cancer SW620 (MLH1+/+) cells were nucleofected with SpCas9 protein and synthetic gRNA/tracrRNA targeting genomic sites in MLH1 overlapping the sites to be mutated along with an oligonucleotide comprising the mutation of interest (MUT), which was as a known loss-of-function variant (E448STOP or Q537STOP), and an oligonucleotide comprising a corresponding synonymous mutation (WT*). At Day 2 after nucleofection, an aliquot of the cell culture was analysed by PCR amplification of the genomic target site and NGS of the PCR product to determine the ratio of MUT to WT* alleles in the cell population. Thereafter, cells were split in two cultures, and cultured in the absence (−) or presence (+) of 2 μM 6-thioguanine until Day 11, where after the mutation analysis was repeated for each culture.

[2] = system: H358 cells xenografted into nude mice; experiment: H358 xenograft in nude mice treated with vehicle or AMG 510: tumor volume and 12D versus 12C* ratio; type: in vivo; details: treated once per day from two weeks after xenografting, versus vehicle
Method: (A) A culture of human lung cancer H358 cells was nucleofected with SpCas9 protein and synthetic gRNA/tracrRNA targeting the oncogenic 12C mutation in KRAS present in these cells along with an oligonucleotide comprising the mutation of interest, which was another oncogenic KRAS mutation (12D), and an oligonucleotide comprising a synonymous mutation ([…]). At Day 2 after transfection, an aliquot of the cell culture was analysed by PCR amplification of the genomic target site and NGS of the PCR product to determine the ratio of 12D versus 12C* alleles in the cell population. […] (B) Determination of tumor volumes over time. (C) Representative mice photographed on day 40. […]
A culture of human lung cancer H358 cells was nucleofected with SpCas9 protein and synthetic gRNA/tracrRNA targeting the oncogenic 12C mutation in KRAS present in these cells along with an oligonucleotide comprising the mutation of interest, which was another oncogenic KRAS mutation (12D), and an oligonucleotide comprising a synonymous mutation (12C*). At Day 2 after transfection, an aliquot of the cell culture was analysed by PCR amplification of the genomic target site and NGS of the PCR product to determine the ratio of 12D versus 12C* alleles in the cell population. […] (B) Tumor volumes were determined over time and, (C) representative mice photographed on day 40.

[3] = system: Hep3B cells; experiment: FGFR4 550M to WT* ratio in cells cultured without or with Fisogatinib; type: cell-based, human; details: 0.72 μM Fisogatinib until Day 16; ratios normalized to Day 2
Excerpt: Data represent ratios normalized to the value at Day 2 and are means of 3 independent experiments +/−SD. Two-tailed paired t-tests were used to calculate the significance in all cases. NS=not significant. ** indicates p<0.01. The figure and results are further described in the Examples.
Cultures of human liver cancer Hep3B cells, which harbor FGF19 focal amplification, were nucleofected with SpCas9 protein and synthetic gRNA/tracrRNA targeting a genomic site overlapping the site to be mutated along with an oligonucleotide comprising the mutation of interest (V550M) in the Fisogatinib-binding site of FGFR4 and an oligonucleotide comprising a synonymous mutation (WT*). At Day 2 after nucleofection, an aliquot of the cell culture was analysed by PCR amplification of the genomic target site and NGS of the PCR product to determine the ratio of 550M to WT* alleles in the cell population. Thereafter, cells were split in two cultures, and cultured in the absence (−) or presence (+) of 0.72 μM Fisogatinib until Day 16, whereafter the mutation analysis was repeated on each culture. […] Such applications of the method are important for clinical management as well as for drug development in the pharmaceutical industry.

[4] = system: MCF10A-BRCA2+/− cells; experiment: MUT:WT* ratio of BRCA2 variants in cells cultured without or with PARP inhibitor; type: cell-based, human; details: 2 nM Talazoparib until Day 12, ratios normalized to Day 2
Method: At Day 2 after transfection, an aliquot of each culture was analysed by PCR amplification of the genomic target site and NGS of the PCR product to determine the ratio of MUT to WT* alleles in the cell population. Thereafter, cells were cultured in the absence or presence of 2 nM Talazoparib (a PARP inhibitor) until Day 12, whereafter the mutation analysis was repeated. Data represent ratios
normalized to the value at Day 2 and are means of 3 independent experiments +/−SD. Two-tailed unpaired t-tests were used to calculate the significance in all cases. NS=not significant. ** indicates p<0.01. **** indicates p<0.0001.
BRCA2 loss-of-function mutations sensitize cells to inhibitors of PARP, which are used in clinical trials/in the clinic as a synthetic lethal personalized therapy for cancer patients with BRCA inactivating mutations. We analysed one neutral BRCA2 mutation (D946V) and two loss-of-function BRCA2 mutations (I2627N, Y2660C) in breast epithelial MCF10A-BRCA2+/− cells cultured in the absence or presence of PARP inhibitor. […] Furthermore, the method will thereby also be useful for the purpose of drug development, drug testing and stratification of cancer patients in clinical trials with new drugs.

[5] = system: MCF10A (ATM+/+) cells; experiment: MUT:WT* ratio of ATM loss-of-function variants without or with Talazoparib; type: cell-based, human; details: R23STOP, Q218STOP, E365STOP; 2 nM Talazoparib until Day 12
Excerpt: Data represent ratios normalized to the value at Day 2 and show a representative experiment. The figure and results are further described in the Examples.
Cultures of human breast epithelial MCF10A (ATM+/+) cells expressing SpCas9 were transfected with synthetic gRNA/tracrRNA targeting genomic sites in ATM overlapping the sites to be mutated along with an oligonucleotide comprising the mutation of interest (MUT), which was as known loss-of-function variants (R23STOP, Q218STOP or E365STOP), and an oligonucleotide comprising a corresponding synonymous mutation (WT*). At Day 2 after transfection, an aliquot of each culture was analysed by PCR amplification of the genomic target site and NGS of the PCR product to determine the ratio of MUT to WT* alleles in the cell population. Thereafter, cells were cultured in the absence (−) or presence (+) of 2 nM Talazoparib (a PARP inhibitor) until Day 12, where after the mutation analysis was repeated.

Nc1nc2nc[nH]c2c(=S)[nH]1 [6-thioguanine]
ability of MLH1 to elicit apoptosis in response to 6-thioguanine in cells with loss-of-function mutations [1]: disabled

C=CC(=O)N1CCN(c2nc(=O)n(-c3c(C)ccnc3C(C)C)c3nc(-c4c(O)cccc4F)c(F)cc23)[C@@H](C)C1 [AMG 510]
bulk tumor size (tumor volumes over time) [2]: greatly reduced

C=CC(=O)N[C@H]1CCOC[C@H]1Nc1ncc2cc(-c3c(Cl)c(OC)cc(OC)c3Cl)ccc2n1 [Fisogatinib]
selection of cells harboring the FGFR4-V550M mutation relative to WT* (resistance) [3]: strongly selected for

Cn1ncnc1[C@H]1c2n[nH]c(=O)c3cc(F)cc(c23)N[C@@H]1c1ccc(F)cc1 [Talazoparib]
effect on cells with the neutral BRCA2 mutation (MUT:WT* ratio) ([4]; D946V): no effect
cell proliferation and/or survival of cells with the loss-of-function BRCA2 mutations ([4]; I2627N, Y2660C): greatly decreased
sensitivity of cells with loss-of-function ATM mutations to PARP inhibitor killing [5]: sensitized them to PARP inhibitor killing
